In US10781214B2, “Kinase inhibitor against wild-type and mutant EGFR” (PRECEDO PHARMACEUTICALS CO., LTD, priority 2015, dated 2020):
Like-named read-outs stand apart in the source and are kept apart here.

Assays:
[1] = test system: NCI-H1975 (expressing EGFR L858R/T790M double-mutant gene); assay: Cancer cell growth, Cell Titer-Glo, 72 h: NCI-H1975; type: cell-based; conditions: Homo sapiens
Source text: (§1) Compounds of the present invention were further evaluated for their selectivity in inhibiting proliferation of cancer cells by testing effects of the novel kinase inhibitors on proliferation of cancer cells. In the examples the following cells were selected: human non-small cell lung cancer cell NCI-H1975 (expressing EGFR L858R/T790M double-mutant gene), human-derived non-small cell lung cancer cell PC-9 (expressing EGFR delE746_A750 mutant gene), human-derived non-small cell lung cancer cell HCC827 (expressing EGFR delE746_A750 mutant gene), human lung adenocarcinoma cell HCC4006 (expressing EGFR delE746_A750 mutant gene), human non-small cell lung cancer cell NCI-H3255 (expressing EGFR L858R mutant gene), human skin squamous carcinoma cell A431 (expressing wild-type EGFR gene), human non-small cell lung cancer cell A549 (expressing wild-type EGFR gene), human non-small cell lung cancer cell NCI-H460 (expressing wild-type EGFR gene), human non-small cell lung cancer cell NCI-H2122 (expressing wild-type EGFR gene), Chinese hamster ovary (CHO) cell (Cricetulus griseus, hamster, Chinese, ovary), Chinese hamster lung cell (CHL), mouse pro-B cell BaF3. The cells above were all purchased from (USA).
(§2) The cells were incubated for 72 h, and then the number of viable cells was determined via quantitative determination with a microplate reader by using Cell Titer-Glo® (Promega, the USA) Luminescent Cell Viability Assay kit.

[2] = test system: PC-9 (expressing EGFR delE746_A750 mutant gene); assay: Cancer cell growth, Cell Titer-Glo, 72 h: PC-9; type: cell-based; conditions: Homo sapiens
Source text: as §1, §2

[3] = test system: HCC827 (expressing EGFR delE746_A750 mutant gene); assay: Cancer cell growth, Cell Titer-Glo, 72 h: HCC827; type: cell-based; conditions: Homo sapiens
Source text: as §1, §2

[4] = test system: NCI-H3255 (expressing EGFR L858R mutant gene); assay: Cancer cell growth, Cell Titer-Glo, 72 h: NCI-H3255; type: cell-based; conditions: Homo sapiens
Source text: as §1, §2

[5] = test system: A431 (expressing wild-type EGFR gene); assay: Cancer cell growth, Cell Titer-Glo, 72 h: A431; type: cell-based; conditions: Homo sapiens
Source text: as §1, §2

[6] = test system: A549 (expressing wild-type EGFR gene); assay: Cancer cell growth, Cell Titer-Glo, 72 h: A549; type: cell-based; conditions: Homo sapiens
Source text: as §1, §2

[7] = test system: NCI-H460 (expressing wild-type EGFR gene); assay: Cancer cell growth, Cell Titer-Glo, 72 h: NCI-H460; type: cell-based; conditions: Homo sapiens
Source text: as §1, §2

mouse pro-B cell BaF3 = assay: Cell growth, Cell Titer-Glo, 72 h: BaF3; type: cell-based
Source text: as §1, §2

[8] = test system: BaF3-TEL-EGFR (stably expressing wild-type EGFR kinase); assay: Cell growth, Cell Titer-Glo, 72 h: BaF3-TEL-EGFR; type: cell-based; conditions: Mus musculus
Source text: (§3) In addition, this example further uses: mouse BaF3-TEL-EGFR (stably expressing wild-type EGFR kinase), mouse BaF3-TEL-EGFR-L858R (stably expressing EGFR L858R mutant kinase), mouse BaF3-TEL-EGFR-T790M (stably expressing EGFR T790M mutant kinase), mouse BaF3-FL-EGFR-DeI19 (stably expressing EGFR delE746_A750 mutant kinase), mouse BaF3-FL-EGFR-T790M-L858R (stably expressing EGFR T790M/L858R mutant kinase), mouse BaF3/P210 (stably expressing bcr/abl˜(P210) mutant kinase), mouse BaF3-TEL-ABL-T315I (stably expressing ABLT315I mutant kinase), mouse BaF3-FLT3-ITD (stably expressing FLT3/ITD mutant kinase), mouse BaF3-TEL-JAK2 (stably expressing JAK2 kinase), mouse BaF3-TEL-JAK3 (stably expressing JAK3 kinase), mouse BaF3-TPR-MET (stably expressing MET kinase), mouse BaF3-TEL-BLK (stably expressing BLK kinase), mouse BaF3-TEL-ABL (stably expressing ABL kinase), mouse BaF3-TEL-BMX (stably expressing BMX kinase), mouse BaF3-TEL-ALK (stably expressing ALK kinase). The above cell lines were all constructed by our laboratory according to the following method: the kinase region sequences of human […], EGFR L858R, EGFR T790M, EGFR delE746_A750, EGFR T790M/L858R, bcr/abl˜(P210), ABL T315I, FLT3/ITD, JAK2, JAK3, MET, BLK, ABL, BMX, ALK were amplified respectively by PCR, inserted respectively into MSCV-Puro vectors harboring N-terminal fragment and/or NPM fragment and/or TPR fragment (Clontech), then the vectors were stably transfected into mouse BaF3 cells by retrovirus methods and growth factor IL-3 was removed, eventually obtaining cell lines that are transferred protein (EGFR, EGFR L858R, EGFR T790M, EGFR delE746_A750, EGFR T790M/L858R, bcr/abl˜(P210), ABL T315I, FLT3/ITD, JAK2, JAK3, MET, BLK, ABL, BMX, ALK)-dependent.
as §2

[9] = test system: BaF3-TEL-EGFR-L858R (stably expressing EGFR L858R mutant kinase); assay: Cell growth, Cell Titer-Glo, 72 h: BaF3-TEL-EGFR-L858R; type: cell-based; conditions: Mus musculus
Source text: as §3, §2

[10] = test system: BaF3-TEL-EGFR-T790M (stably expressing EGFR T790M mutant kinase); assay: Cell growth, Cell Titer-Glo, 72 h: BaF3-TEL-EGFR-T790M; type: cell-based; conditions: Mus musculus
Source text: as §3, §2

[11] = test system: NCI-H2122 (expressing wild-type EGFR gene); assay: Cancer cell growth, Cell Titer-Glo, 72 h: NCI-H2122; type: cell-based; conditions: Homo sapiens, NCI-H2122 cells
Source text: as §1, with “The cells above were all purchased from (USA).” left out
as §2

[12] = test system: BaF3-FL-EGFR-Del19 (stably expressing EGFR delE746_A750 mutant kinase); assay: Cell growth, Cell Titer-Glo, 72 h: BaF3-FL-EGFR-Del19; type: cell-based; conditions: Mus musculus, BaF3-FL-EGFR-Del19 cells
Source text: In addition, this example further uses: mouse BaF3-TEL-EGFR (stably expressing wild-type EGFR kinase), mouse BaF3-TEL-EGFR-L858R (stably expressing EGFR L858R mutant kinase), mouse BaF3-TEL-EGFR-T790M (stably expressing EGFR T790M mutant kinase), mouse BaF3-FL-EGFR-DeI19 (stably expressing EGFR delE746_A750 mutant kinase), mouse BaF3-FL-EGFR-T790M-L858R (stably expressing EGFR T790M/L858R mutant kinase), mouse BaF3/P210 (stably expressing bcr/abl˜(P210) mutant kinase), mouse BaF3-TEL-ABL-T315I (stably expressing ABLT315I mutant kinase), mouse BaF3-FLT3-ITD (stably expressing FLT3/ITD mutant kinase), mouse BaF3-TEL-JAK2 (stably expressing JAK2 kinase), mouse BaF3-TEL-JAK3 (stably expressing JAK3 kinase), mouse BaF3-TPR-MET (stably expressing MET kinase), mouse BaF3-TEL-BLK (stably expressing BLK kinase), mouse BaF3-TEL-ABL (stably expressing ABL kinase), mouse BaF3-TEL-BMX (stably expressing BMX kinase), mouse BaF3-TEL-ALK (stably expressing ALK kinase). […]
as §2

[13] = test system: BaF3-FL-EGFR-T790M-L858R (stably expressing EGFR T790M/L858R mutant kinase); assay: Cell growth, Cell Titer-Glo, 72 h: BaF3-FL-EGFR-T790M-L858R; type: cell-based; conditions: Mus musculus, BaF3-FL-EGFR-T790M-L858R cells
Source text: as §3, §2

[14] = test system: EGFR and signaling proteins in A549, H1975, PC-9, H3255 and HCC827 cells; assay: Effect on cell signaling pathways (phosphorylation of EGFR and downstream proteins); type: cell-based, human; conditions: A549, H1975, PC-9, H3255, HCC827 cells; 4 hour-treatment; 0.01-3 μM
[15] = NCI-H1975 cells, 72 h, read-out: GI50
[16] = PC-9 cells, 72 h, read-out: GI50
[17] = HCC827 cells, 72 h, read-out: GI50
[18] = NCI-H3255 cells, 72 h, read-out: GI50
[19] = A-431, A431 cells, 72 h, read-out: GI50
[20] = A549 cells, 72 h, read-out: GI50
[21] = BaF3 cells, 72 h, read-out: GI50
[22] = BaF3-TEL-EGFR cells, read-out: GI50
[23] = BaF3-TEL-EGFR-L858R cells, read-out: GI50
[24] = BaF3-TEL-EGFR-T790M cells, read-out: GI50
[25] = NCI-H460 cells, 72 h, read-out: GI50

Row | Compound | GI50 [1, 15] [µM] | GI50 [2, 16] [µM] | GI50 [3, 17] [µM] | GI50 [4, 18] [µM] | GI50 [5, 19] [µM] | GI50 [6, 20] [µM] | GI50 (mouse pro-B cell BaF3; [21]) [µM] | GI50 [8, 22] [µM] | GI50 [9, 23] [µM] | GI50 [10, 24] [µM] | GI50 [13] [µM] | other results
1 | C=CC(=O)Nc1cc(Nc2nccc(-c3cn(C)c4ccccc34)n2)c(OC)cc1N(C)CCN(C)C [AZD9291, reference compound] | – | – | – | – | – | – | – | – | – | – | – | GI50 ([1]; NCI-H1975, 72 h): […]; GI50 ([2]; PC-9, 72 h): 0.003 µM; GI50 ([3]; HCC827, 72 h): 0.004 µM; GI50 ([4]; NCI-H3255, 72 h): 0.031 µM; GI50 ([5]; A-431, 72 h): […]; GI50 ([6]; A549, 72 h): 5 µM; GI50 ([7]; NCI-H460, 72 h): 4 µM; GI50 (mouse pro-B cell BaF3; BaF3, 72 h): 2.7 µM; GI50 [8]: 1.8 µM; GI50 [9]: 0.0017 µM; GI50 [10]: 0.022 µM
2 | CCC(=O)N1CCC[C@@H](n2nc(-c3ccc(OCc4cccc(F)c4)c(Cl)c3)c3c(N)ncnc32)C1 [Compound 51, (R)-1-(3-(4-amino-3-(3-chloro-4-((3-fluorobenzyl)oxy)phenyl)-1H-pyrazolo[3,4-d]pyrimidin-1-yl)piperidin-1-yl)propan-1-one] | 2.7 | 3.2 | 3.9 | > 10 | 9 | > 10 | 9.2 | 3.7 | 0.94 | 1.1 | 1.7 | GI50 [11]: 3.9 µM; GI50 [12]: 1.2 µM
3 | C=CC(=O)N1CCC[C@@H](n2nc(-c3ccc(OCc4cccc(C)n4)c(Cl)c3)c3c(N)ncnc32)C1 [Compound 29, (R)-1-(3-(4-amino-3-(3-chloro-4-((6-methylpyridin-2-yl)methoxy)phenyl)-1H-pyrazolo[3,4-d]pyrimidin-1-yl)piperidin-1-yl)prop-2-en-1-one] | < 0.0003 | 0.035 | 0.036 | 0.027 | > 10 | > 10 | > 10 | 5.4 | < 0.0003 | < 0.0003 | 0.006 | GI50 [7, 25]: 4 µM; phosphorylation of EGFR protein [14]: strongly inhibit; phosphorylation of proteins such as AKT308, eIF4E, P70S6K and ERK downstream of EGFR [14]: significant effect
4 | C=CC(=O)N1CC[C@@H](n2nc(-c3ccc(OCc4cccc(F)c4)c(Cl)c3)c3c(N)ncnc32)C1 [Compound 4, (R)-1-(3-(4-amino-3-(3-chloro-4-((3-fluorobenzyl)oxy)phenyl)-1H-pyrazolo[3,4-d]pyrimidin-1-yl)pyrrolidin-1-yl)prop-2-en-1-one] | 0.053 | 0.028 | 0.038 | 0.028 | 0.017 | 3.7 | 4.1 | 0.013 | < 0.0003 | – | < 0.0003 | GI50 [11]: 0.13 µM
5 | C=CC(=O)N1CCC[C@@H](n2nc(-c3ccc(OCc4ccccc4)c(F)c3)c3c(N)ncnc32)C1 [Compound 12, (R)-1-(3-(4-amino-3-(4-(benzyloxy)-3-fluorophenyl)-1H-pyrazolo[3,4-d]pyrimidin-1-yl)piperidin-1-yl)prop-2-en-1-one] | 0.08 | 0.011 | 0.039 | 0.023 | – | 4.3 | 7.4 | 2.8 | – | < 0.0003 | – | –
6 | C=CC(=O)Nc1cccc(Nc2nc(Nc3ccc(N4CCN(C(C)=O)CC4)cc3OC)ncc2C(F)(F)F)c1 [CO-1686, reference compound] | 0.44 | 0.13 | 0.097 | 0.25 | 1.2 | 0.83 | 0.97 | 2.8 | 0.0063 | 0.13 | – | GI50 [7, 25]: 2.5 µM
7 | C=CC(=O)Nc1cc(Cn2nc(-c3ccc(F)c(Cl)c3)c3c(N)ncnc32)ccc1N(C)CCN(C)C [Compound 40] | 1.2 | 1 | 1.6 | 3.7 | 2.6 | – | 1.9 | 1.3 | – | – | – | –
8 | C=CC(=O)N1CCC[C@@H](n2nc(-c3ccc(OCc4cccc(F)c4)c(F)c3)c3c(N)ncnc32)C1 [Compound 13, (R)-1-(3-(4-amino-3-(3-fluoro-4-((3-fluorobenzyl)oxy)phenyl)-1H-pyrazolo[3,4-d]pyrimidin-1-yl)piperidin-1-yl)prop-2-en-1-one] | 0.017 | 0.002 | 0.016 | 0.015 | – | 7 | 5.1 | 2.8 | – | < 0.0003 | – | –
